Assay results as given in ChEMBL document CHEMBL1127768, “Possible antineoplastic agents : part 14 - synthesis, activity and QSAR studies of some 1-(substituted benzenesulphonyl)-5-oxopyrrolidine-2-carboxylic acid hydrazides” (1994).

What was measured:
Format in all cases: functional
[1] = system: Mus musculus; experiment: In vivo antineoplastic activity against Ehrlich ascites carcinoma (EAC) cells in mice at 50 mg/kg body weight upon intraperitoneal administration; details: ip
[2] = system: Mus musculus; experiment: In vivo antineoplastic activity against Ehrlich ascites carcinoma fluid in mice at 50 mg/kg body weight upon intraperitoneal administration; details: ip
[3] = organism: Mus musculus; experiment: Observed biological activity converted into logit model against Ehrlich ascites carcinoma in mice
[4] = system: Mus musculus; experiment: In vivo antineoplastic activity against Ehrlich ascites carcinoma fluid in mice at 1 mg/kg body weight upon intraperitoneal administration; details: ip
[5] = system: Mus musculus; experiment: In vivo antineoplastic activity against Ehrlich ascites carcinoma (EAC) cells in mice at 1 mg/kg body weight upon intraperitoneal administration; details: ip

Row | SMILES | inhibition in vivo at 50 mg/kg [1] [%] | inhibition in vivo at 50 mg/kg [2] [%] | logit activity [3] | inhibition in vivo at 1 mg/kg [4] [%] | inhibition in vivo at 1 mg/kg [5] [%]
1 | O=C(NNc1ccccc1)C1CCC(=O)N1S(=O)(=O)c1ccc(Cl)cc1 (stereo unspecified) | 74.3 | 71.4 | 3.13 | – | –
2 | NNC(=O)C1CCC(=O)N1S(=O)(=O)c1ccc(Cl)c(Cl)c1 (stereo unspecified) | 59.3 | 58.3 | 1.03 | – | –
3 | Cc1ccc(S(=O)(=O)N2C(=O)CCC2C(=O)NNc2ccccc2)cc1 (stereo unspecified) | 77.6 | 64.3 | 1.89 | – | –
4 | O=C(NNc1ccccc1)C1CCC(=O)N1S(=O)(=O)c1ccccc1 (stereo unspecified) | 79 | 85.7 | 5.59 | – | –
5 | NNC(=O)C1CCC(=O)N1S(=O)(=O)c1ccc(Cl)cc1 (stereo unspecified) | 64.9 | 61.1 | 1.25 | – | –
6 | O=C(NNc1ccccc1)C1CCC(=O)N1S(=O)(=O)c1ccc(Cl)c(Cl)c1 (stereo unspecified) | 66.8 | 57.7 | 1.16 | – | –
7 | Cc1ccc(S(=O)(=O)N2C(=O)CCC2C(=O)NN)cc1 (stereo unspecified) | 50.1 | 52.8 | 0.61 | – | –
8 | NNC(=O)C1CCC(=O)N1S(=O)(=O)c1ccccc1 (stereo unspecified) | 40.3 | 44.4 | -0.549 | – | –
9 | CO[C@@]12[C@H](COC(N)=O)C3=C(C(=O)C(C)=C(N)C3=O)N1C[C@@H]1N[C@@H]12 [MITOMYCIN] | – | – | – | 100 | 100
